# Reference: publication PMC3723632, “A Multi-targeted Drug Candidate with Dual Anti-HIV and Anti-HSV Activity” (PLoS Pathogens, 2013)
# Columns and labels:
# Assay type in all cases: biochemical
# [1] = biological target: mutant HIV-1 RT enzymes (K65R and K70R); experiment: Mutant HIV-1 RT enzyme inhibition; conditions: K65R and K70R mutant HIV-1 RT, data not shown
# Description: In all assay systems the drugs were administered prior to, or at the time of, virus infection which is relevant from a microbicidal application viewpoint, for which the drugs are preferentially already present at the time of infection. However, it might well be possible that these drugs are also effective when exposed shortly after virus infection given the DNA polymerase/HIV reverse transcriptase as being one of the intracellular targets of PMEO-DAPym. […] Thus, PMEO-DAPym may have a rather high genetic barrier suppressing a wide variety of clinical HSV and HIV-1 clade isolates, including clinically relevant mutant viruses.
# HSV DNA polymerase = biological target: T1, HSV DNA polymerase (Human herpesvirus 1, UniProt P04293); experiment: HSV DNA polymerase assay; conditions: for IC50: gapped calf thymus DNA
# T1 construct: gift of M.W. Wathen (Pfizer, Kalamazoo, MI)
# T1 sequence (P04293 whole entry): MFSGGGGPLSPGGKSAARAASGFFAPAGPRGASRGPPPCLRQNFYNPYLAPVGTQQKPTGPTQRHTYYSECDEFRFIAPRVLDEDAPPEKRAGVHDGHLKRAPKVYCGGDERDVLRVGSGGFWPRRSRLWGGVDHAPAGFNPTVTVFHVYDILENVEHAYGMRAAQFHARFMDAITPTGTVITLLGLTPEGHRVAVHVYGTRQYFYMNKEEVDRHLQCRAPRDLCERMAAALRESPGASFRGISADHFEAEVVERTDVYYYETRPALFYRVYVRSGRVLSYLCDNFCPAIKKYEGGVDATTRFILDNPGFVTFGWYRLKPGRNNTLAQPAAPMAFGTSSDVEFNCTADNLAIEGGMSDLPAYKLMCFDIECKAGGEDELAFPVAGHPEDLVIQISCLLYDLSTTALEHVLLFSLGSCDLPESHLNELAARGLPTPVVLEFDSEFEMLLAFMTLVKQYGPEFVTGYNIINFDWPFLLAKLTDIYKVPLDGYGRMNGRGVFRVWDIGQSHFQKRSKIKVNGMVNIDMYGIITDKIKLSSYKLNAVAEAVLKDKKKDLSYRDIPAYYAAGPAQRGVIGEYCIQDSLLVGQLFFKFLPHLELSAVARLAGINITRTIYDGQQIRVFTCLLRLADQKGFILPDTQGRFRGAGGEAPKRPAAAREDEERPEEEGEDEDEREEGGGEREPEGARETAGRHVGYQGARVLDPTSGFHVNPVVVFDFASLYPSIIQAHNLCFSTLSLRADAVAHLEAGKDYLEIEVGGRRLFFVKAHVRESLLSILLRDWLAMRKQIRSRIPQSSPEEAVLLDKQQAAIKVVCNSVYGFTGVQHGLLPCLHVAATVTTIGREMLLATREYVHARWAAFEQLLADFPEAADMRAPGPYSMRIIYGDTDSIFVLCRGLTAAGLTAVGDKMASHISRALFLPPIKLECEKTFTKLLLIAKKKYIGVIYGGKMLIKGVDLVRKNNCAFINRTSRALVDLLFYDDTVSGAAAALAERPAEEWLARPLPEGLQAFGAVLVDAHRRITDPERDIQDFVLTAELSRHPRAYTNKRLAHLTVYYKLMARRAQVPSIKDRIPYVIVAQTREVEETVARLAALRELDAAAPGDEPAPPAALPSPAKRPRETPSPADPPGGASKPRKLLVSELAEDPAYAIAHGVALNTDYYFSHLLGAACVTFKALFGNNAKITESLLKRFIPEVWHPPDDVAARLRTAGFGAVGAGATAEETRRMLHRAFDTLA
# Description: (§1) The reaction mixture (40 µl) for the HSV-1 DNA polymerase and HIV-1 RT assays contained 4 µl of Premix (200 mM Tris.HCl, pH 7.5; 2 mM DTT; 30 mM MgCl2), 4 µl of BSA (5 mg/ml), 1.6 µl of activated calf thymus DNA (1.25 mg/ml), 0.8 µl of dCTP (5 mM), 0.8 µl of dTTP (5 mM), 0.8 µl of dGTP (5 mM), 2 µl of radiolabeled [^3H]dATP (1 mCi/ml) (3.2 µM), 18 µl of H2O, and 4 µl of adefovir-pp or PMEO-DAPym-pp at different concentrations (i.e., 200, 20, 2, and 0.2 µM). In the HSV DNA polymerase assays, the inhibitory effect of adefovir-pp or PMEA-DAPym-pp on herpesvirus DNA polymerase-catalyzed polymerization was also determined in the presence of radiolabeled [^3H]dGTP (1 mCi/ml; 2.8 µM), [^3H]dTTP (1 mCi/ml; 1 µM), or [^3H]dCTP (1 mCi/ml; 2.5 µM) as competing dNTP in the presence of 0.8 µl (5 mM) of the other dNTPs in the reaction mixture as described above. The reaction was started by the addition of 4 µl of recombinant HSV-1 DNA polymerase (kindly provided by M.W. Wathen, at that time at Pfizer, Kalamazoo, MI) or 4 µl of recombinant HIV-1 RT (in 20 mM Tris.HCl, pH 8.0; 1 mM DTT; 0.1 mM EDTA; 0.2 M NaCl; 40% glycerol), and the reaction mixture was incubated for 60 min (HSV-1 DNA polymerase) or 30 min (HIV-1 RT) at 37°C. Then, 1 ml of ice-cold 5% TCA in 0.02 M Na4P2O7.10 H2O was added to terminate the polymerisation reaction, after which the acid-insoluble precipitate (radiolabeled DNA) was captured onto Whatman glass fiber filters (type GF/C; GE Healthcare UK Limited, Buckinghamshire, UK) and further washed with 5% TCA and ethanol to remove free radiolabeled dNTP. Radioactivity was determined in a Perkin Elmer Tri-Carb 2810 TR liquid scintillation counter.
# HIV-1 RT = biological target: T2, HIV-1 RT (Human immunodeficiency virus type 1 group M subtype B, UniProt P03366); experiment: HIV-1 reverse transcriptase assay; conditions: dATP (3.2 µM) as competing substrate, poly rU.dA primer/template
# T2 construct: 4 µl of recombinant HIV-1 RT
# Description: as §1, with “The reaction mixture (40 µl) for the HSV-1 DNA polymerase and HIV-1 RT assays contained 4 µl of Premix (200 mM Tris.HCl, pH 7.5; 2 mM DTT; 30 mM MgCl2), 4 µl of BSA (5 mg/ml), 1.6 µl of activated calf thymus DNA (1.25 mg/ml), 0.8 µl of dCTP (5 mM), 0.8 µl of dTTP (5 mM), 0.8 µl of dGTP (5 mM), 2 µl of radiolabeled [^3H]dATP (1 mCi/ml) (3.2 µM), 18 µl of H2O, and 4 µl of adefovir-pp or PMEO-DAPym-pp at different concentrations (i.e., 200, 20, 2, and 0.2 µM).” left out
smiles,measurement,setting,value
Nc1cc(OCCOCP(=O)(O)OP(=O)(O)OP(=O)(O)O)nc(N)n1 [PMEO-DAPym-pp],IC50,[1],submicromolar range
same,IC50,HSV DNA polymerase; [3H]dATP as competing substrate,0.52 ± 0.03 µg/mL
same,IC50,HSV DNA polymerase; [3H]dCTP as competing substrate,5.2 ± 4.8 µg/mL
same,IC50,HSV DNA polymerase; [3H]dGTP as competing substrate,3.1 ± 1.0 µg/mL
same,IC50,HSV DNA polymerase; [3H]dTTP as competing substrate,5.2 ± 0.3 µg/mL
same,"IC50, incorporation of other [3H]dNTPs","HSV DNA polymerase; dCTP, dGTP, dTTP, range",3.1 to 5.2 µg/mL
same,IC50,HIV-1 RT,0.19 ± 0.21 µg/mL
same,IC50,HIV-1 RT; listed as PMEO-DAPym-diphosphate,0.43 µg/mL
